Laboratory results: patent US20220363709A1, “ECTONU[…] METHODS OF USE THEREOF” (priority 2019, published 2022)
Like-named read-outs stand apart in the source and are kept apart here.

Target: T1, recombinant CD73 (Homo sapiens, UniProt P21589)
T1 construct: purchased R&D Systems 5795-EN-010
T1 sequence (P21589 27-547 limits assumed): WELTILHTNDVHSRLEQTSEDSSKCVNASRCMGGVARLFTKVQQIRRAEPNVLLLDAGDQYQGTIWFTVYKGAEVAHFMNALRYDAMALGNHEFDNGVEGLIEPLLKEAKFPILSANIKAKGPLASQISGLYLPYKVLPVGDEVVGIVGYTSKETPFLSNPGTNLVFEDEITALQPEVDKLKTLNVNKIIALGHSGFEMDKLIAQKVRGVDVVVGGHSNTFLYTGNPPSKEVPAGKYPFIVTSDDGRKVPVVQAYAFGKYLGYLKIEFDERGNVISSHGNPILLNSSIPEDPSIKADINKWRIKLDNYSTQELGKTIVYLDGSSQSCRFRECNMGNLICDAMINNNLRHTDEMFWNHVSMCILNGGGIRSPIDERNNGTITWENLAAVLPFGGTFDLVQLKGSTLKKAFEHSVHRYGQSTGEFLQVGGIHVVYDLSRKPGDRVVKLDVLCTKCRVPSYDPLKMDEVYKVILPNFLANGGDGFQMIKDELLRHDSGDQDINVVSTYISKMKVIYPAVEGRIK
Assay: Assay 1: Inhibition of the CD73 Enzyme In Vitro
Assay type: biochemical
Description: Serial dilutions of test compounds were incubated with recombinant CD73 and AMP in reaction buffer (25 mM Tris HCl pH7.5, 5 mM MgCl2, 50 mM NaCl, 0.25 mM DTT, 0.005% Triton X-100). The final reaction volume was 25 μL and the final concentrations of recombinant CD73 and AMP were 0.5 nM and 50 μM, respectively. […] After 5 minutes at room temperature, absorbance at 630 nm was determined on a microplate spectrophotometer. The concentration of inorganic phosphate was determined using a phosphate standard curve.
ND indicates not determined.

[1] = soluble recombinant CD73 0.5 nM, AMP 50 μM, 30 minutes at room temperature, Malachite Green, absorbance at 630 nm, read-out: Assay 1 CD73 IC50

Structure (SMILES)	IC50 [1]	IC50
Nc1nc(Cl)nc2c1ncn2[C@@H]1O[C@H](CO[C@@](Cc2ccc(-c3ccccc3)cc2)(C(=O)O)c2cscn2)[C@@H](O)[C@@H]1F (single isomer, unassigned) [Example 9]	2640 nM	
Nc1nc(Cl)nc2c1ncn2[C@@H]1O[C@H](CO[C@](Cc2ccc(-c3ccc(C(=O)O)cc3)cc2)(C(=O)O)c2cscn2)[C@@H](O)[C@@H]1F (single isomer, unassigned) [Example 10]	227 nM	
Nc1nc(Cl)nc2c1ncn2[C@@H]1O[C@H](CO[C@@](Cc2ccc(-c3ccc(C(=O)O)cc3)cc2)(C(=O)O)c2cscn2)[C@@H](O)[C@@H]1F (single isomer, unassigned) [Example 11]	1530 nM	
Nc1nc(Cl)nc2c1ncn2[C@@H]1O[C@H](CO[C@](Cc2ccc(C(=O)O)cc2)(C(=O)O)c2cscn2)[C@@H](O)[C@@H]1F (single isomer, unassigned) [Example 15]	296 nM	
Nc1nc(Cl)nc2c1ncn2[C@@H]1O[C@H](CO[C@@](Cc2ccc(C(=O)O)cc2)(C(=O)O)c2cscn2)[C@@H](O)[C@@H]1F (single isomer, unassigned) [Example 16]	4870 nM	
COc1ncccc1-c1ccc(C[C@@](OC[C@H]2O[C@@H](n3cnc4c(N)nc(Cl)nc43)[C@@H](F)[C@@H]2O)(C(=O)O)c2cscn2)cc1 (single isomer, unassigned) [Example 19]	170 nM	
COc1ncccc1-c1ccc(C[C@](OC[C@H]2O[C@@H](n3cnc4c(N)nc(Cl)nc43)[C@@H](F)[C@@H]2O)(C(=O)O)c2cscn2)cc1 (single isomer, unassigned) [Example 20]	2750 nM	
Nc1nc(Cl)nc2c1ncn2[C@@H]1O[C@H](CO[C@](Cc2ccc(-c3ccc[nH]c3=O)cc2)(C(=O)O)c2cscn2)[C@@H](O)[C@@H]1F (single isomer, unassigned) [Example 21]	47 nM	
Nc1nc(Cl)nc2c1ncn2[C@@H]1O[C@H](CO[C@@](Cc2ccc(-c3ccc[nH]c3=O)cc2)(C(=O)O)c2cscn2)[C@@H](O)[C@@H]1F (single isomer, unassigned) [Example 22]	2980 nM	
Cc1nc([C@](Cc2ccc(-c3ccccc3)cc2)(OC[C@H]2O[C@@H](n3cnc4c(N)nc(Cl)nc43)[C@H](O)[C@@H]2O)C(=O)O)cs1 (single isomer, unassigned) [Example 28]	90 nM	
Cc1nc([C@@](Cc2ccc(-c3ccccc3)cc2)(OC[C@H]2O[C@@H](n3cnc4c(N)nc(Cl)nc43)[C@H](O)[C@@H]2O)C(=O)O)cs1 (single isomer, unassigned) [Example 29]	3220 nM	
Nc1nc([C@](Cc2ccccc2)(OC[C@H]2O[C@@H](n3cnc4c(N)nc(Cl)nc43)[C@H](O)[C@@H]2O)C(=O)O)cs1 (single isomer, unassigned) [Example 30]	342 nM	
Nc1nc([C@@](Cc2ccccc2)(OC[C@H]2O[C@@H](n3cnc4c(N)nc(Cl)nc43)[C@H](O)[C@@H]2O)C(=O)O)cs1 (single isomer, unassigned) [Example 31]	1970 nM	
Nc1nc(Cl)nc2c1ncn2[C@@H]1O[C@H](CO[C@](Cc2ccccc2)(C(=O)O)c2cocn2)[C@@H](O)[C@H]1O (single isomer, unassigned) [Example 35]	290 nM	
Nc1nc(Cl)nc2c1ncn2[C@@H]1O[C@H](CO[C@@](Cc2ccccc2)(C(=O)O)c2cocn2)[C@@H](O)[C@H]1O (single isomer, unassigned) [Example 36]	6260 nM	
COc1cccc(CO)c1-c1ccc(C[C@@](OC[C@H]2O[C@@H](n3cnc4c(N)nc(Cl)nc43)[C@H](O)[C@@H]2O)(C(=O)O)c2cscn2)cc1 (single isomer, unassigned) [Example 39]	68 nM	
COc1cccc(CO)c1-c1ccc(C[C@](OC[C@H]2O[C@@H](n3cnc4c(N)nc(Cl)nc43)[C@H](O)[C@@H]2O)(C(=O)O)c2cscn2)cc1 (single isomer, unassigned) [Example 40]	2230 nM	
CS(=O)(=O)Nc1ccccc1-c1ccc(C[C@@](OC[C@H]2O[C@@H](n3cnc4c(N)nc(Cl)nc43)[C@H](O)[C@@H]2O)(C(=O)O)c2cscn2)cc1 (single isomer, unassigned) [Example 41]	43 nM	
CS(=O)(=O)Nc1ccccc1-c1ccc(C[C@](OC[C@H]2O[C@@H](n3cnc4c(N)nc(Cl)nc43)[C@H](O)[C@@H]2O)(C(=O)O)c2cscn2)cc1 (single isomer, unassigned) [Example 42]	904 nM	
Nc1nc(Cl)nc2c1ncn2[C@@H]1O[C@H](CO[C@](Cc2ccc(-c3ccccc3OC(F)(F)F)cc2)(C(=O)O)c2cscn2)[C@@H](O)[C@H]1O (single isomer, unassigned) [Example 43]	51 nM	
Nc1nc(Cl)nc2c1ncn2[C@@H]1O[C@H](CO[C@@](Cc2ccc(-c3ccccc3OC(F)(F)F)cc2)(C(=O)O)c2cscn2)[C@@H](O)[C@H]1O (single isomer, unassigned) [Example 44]	365 nM	
Nc1nc(Cl)nc2c1ncn2[C@@H]1O[C@H](CO[C@](Cc2ccc(-c3ccccc3C(=O)O)cc2)(C(=O)O)c2ccccc2)[C@@H](O)[C@H]1O (single isomer, unassigned) [Example 47]	4220 nM	
Nc1nc(Cl)nc2c1ncn2[C@@H]1O[C@H](CO[C@@](Cc2ccc(-c3ccccc3C(=O)O)cc2)(C(=O)O)c2ccccc2)[C@@H](O)[C@H]1O (single isomer, unassigned) [Example 48]	14100 nM	
COC(=O)c1ccccc1-c1ccc(CC(OC[C@H]2O[C@@H](n3cnc4c(N)nc(Cl)nc43)[C@H](O)[C@@H]2O)(C(=O)O)c2ccccc2)cc1 (stereo partly drawn) [Example 46, 2-(((2R,3S,4R,5R)-5-(6-amino-2-chloro-9H-purin-9-yl)-3,4-dihydroxytetrahydrofuran-2-yl)methoxy)-3-(2′-(methoxycarbonyl)-[1,1′-biphenyl]-4-yl)-2-phenylpropanoic acid]		> 50000 nM
Nc1nc(Cl)nc2c1ncn2[C@@H]1O[C@H](COC(Cc2ccc(-c3ccccc3C(=O)O)cc2)(C(=O)O)c2cscn2)C[C@H]1O (stereo partly drawn) [Example 50, 4′-(2-(((2S,4R,5R)-5-(6-amino-2-chloro-9H-purin-9-yl)-4-hydroxytetrahydrofuran-2-yl)methoxy)-2-carboxy-2-(thiazol-4-yl)ethyl)-[1,1′-biphenyl]-2-carboxylic acid]		> 1000 nM
